Laboratory results published in article PMC7758017 (Iranian Journal of Pharmaceutical Research : IJPR, 2020).
Read-outs that look alike come from different tables or passages of the source.

What was measured:
[1] = system: acetylcholinesterase (AChE); parameters: method as in PMID 10641971; conditions: long-lasting, pseudo-irreversible inhibitor; ref [10]; cited from earlier work
[2] = in vivo; conditions: male, Wistar, rat, im
Protocol: (§1) An analytical column (Waters Spherisorb S5 W (250 mm × 4.6 i.d.; 5 μm particle size)) with guard column (Waters Spherisorb S5 W (30 mm × 4.6 mm i.d.)) was used for the analysis. The mobile phase contained acetonitrile and 50 mM sodium dihydrogen phosphate (17:83; v/v). The pH was adjusted to 3.1 with phosphoric acid ([13]). The sample volume was 40 µL for plasma samples and 90 µL for brain-tissue samples. All chromatograms were obtained at a conditioned temperature (50 °C), and the flow rate was 1.3 mL/min ([13]).
(§2) Male adult Wistar rats (body weight 230 ± 30 g; Anlab Inc., Prague, Czech Republic) were used for pharmacokinetics study. The animals were kept under recommended conditions: standard laboratory food and tap water were available ad libitum. All experimental procedures and protocols were reviewed and approved by the Ethics Committee of the Faculty of Military Health Sciences, University of Defense, Hradec Kralove, Czech Republic. […] Blood samples were collected directly from the heart into heparinized 1.5 mL polythene tubes after 5, 15, 30, 45, 60, 120 and 240 min, and after 24 h (n = 6; six animals in each time interval). The samples were immediately centrifuged at 3000 ×g for 10 min (10 °C), and the plasma obtained was stored at −80 °C until analysis.
(§3) Standard noncompartmental analysis was performed using Kinetica software, version 4.0 (InnaPhase Corporation, Thermo Fisher Scientific Inc., Waltham, MA, USA). Maximum concentration (Cmax) and the time to the maximum concentration (Tmax) were determined directly from the observed data. The area under the mean plasma concentration–time curve from zero up to infinity (AUCtotal) was determined as the sum of the AUC0–24 h and of the extrapolated part, i.e. the ratio of the concentration predicted at the time interval of 24 h and the terminal rate constant λz. The λz was estimated using linear regression of the log-transformed concentrations at interval from 45 min to 24 h plotted against time. The half-life was calculated as t1/2 = ln(2)/λz. […]

[3] = in vivo; conditions: male, Wistar, rat
Protocol: as §1, §2
After perfusion, the skull was opened and the brain was checked visually and subsequently carefully removed; time intervals correspond with blood sampling (5, 15, 30, 45, 60, 120 and 240 min, and after 24 hours; n = 6; the same animals were used). All brains were stored at –80 °C until HPLC analysis ([15]).
Standard noncompartmental analysis was performed using Kinetica software, version 4.0 (InnaPhase Corporation, Thermo Fisher Scientific Inc., Waltham, MA, USA). Maximum concentration (Cmax) and the time to the maximum concentration (Tmax) were determined directly from the observed data. The area under the mean plasma concentration–time curve from zero up to infinity (AUCtotal) was determined as the sum of the AUC0–24 h and of the extrapolated part, i.e. the ratio of the concentration predicted at the time interval of 24 h and the terminal rate constant λz. The λz was estimated using linear regression of the log-transformed concentrations at interval from 45 min to 24 h plotted against time. The half-life was calculated as t1/2 = ln(2)/λz. Other statistical analysis was performed using GraphPad Prism, version 5.0 (GraphPad Software, San Diego, California, USA).
Brain tissues (whole brains) were mechanically crushed under liquid nitrogen. […] Eight-hundred microliter of supernatant was subjected to liquid-liquid extraction as previously described. All assessments were performed in triplicate.

[4] = Plasma pharmacokinetics after single i.m. injection in rats (HPLC-UV); conditions: male, Wistar, rat, in vivo, im
Protocol: as §1, §2, §3

[5] = human, 10 mg/day p.o., HPLC study, ref [7], cited from earlier work

For CCN(C)C(=O)Oc1cccc([C@H](C)N(C)C)c1 [Rivastigmine], the “duration of AChE inhibition” value [1] is listed as “up to 10 h”, the CL/F [2] is listed as 690 ± 30 mL/min/kg and the MRT [2] is listed as 43.4 min. The Kp at 0 min [3] was 0, the Kp at 5 min [3] was 1.74 and the Kp at 15 min [3] was 1.48. The Kp at 30 min [3] was 1.7, the Kp at 45 min [3] was 1.15 and the Kp at 60 min [3] was 1.13. It also gave a Kp at 120 min [3] of 0.176, a Kp at 240 min [3] of 0 and a Kp at 24 h [3] of 0. It also gave a concentration at 0 min [3] of 0 ng/mL, a concentration at 5 min [3] of 5.23 ± 0.76 ng/mL and a concentration at 15 min [3] of 4.92 ± 0.62 ng/mL. It also gave a concentration at 30 min [3] of 4.72 ± 0.51 ng/mL, a concentration at 45 min [3] of 2.73 ± 0.32 ng/mL and a concentration at 60 min [3] of 2.24 ± 0.22 ng/mL. It also gave a concentration at 120 min [3] of 0.03 ± 0.02 ng/mL, a concentration at 240 min [3] of 0 ng/mL and a concentration at 24 h [3] of 0 ng/mL. The Vd/F [4] was 19.8 ± 3.87 L/kg.

In the case of COc1cc2c(cc1OC)C(=O)C(CC1CCN(Cc3ccccc3)CC1)C2 (stereo not drawn) [Donepezil], the CSF concentration ([5]; 12 h after application) is listed as 5.2 ng/mL and the CSF concentration ([5]; after 24 h) is listed as 7.5 ng/mL.
